Patent publication US4371537A, “Sulfur-substituted phenoxypyridines having antiviral activity” (The Dow Chemical Company, priority 1981, dated 1983)
Converted amounts (≈) assume the structure as drawn.

How the values were obtained:
RV-1A, RV-2 or Cox A21 = experiment: Summary of HeLa tissue culture testing against the test viruses; assay type: cell-based, rhinovirus types 1A and 2, Coxsackie A21 virus; settings: for antiviral activity in tissue culture: active on RV-1A and RV-2 at a test concentration equivalent to the cytotoxic concentration
Method: (§1) Monolayered HeLa cells in 16 millimeter (mm) tissue culture dishes were treated with 1 ml of culture medium (Eagles medium supplemented with fetal calf serum) containing subject compound at an appropriate concentration or containing no compound at all. Culture media such as those described herein are more fully described in standard texts, as for example, Kuchler's Biochemical Methods in Cell Culture and Virology, Dowden, Hutchinson and Ross, Inc., Stroudsberg, PA (1977). Following treatment, cells were challenged with 0.05 ml of rhinovirus type 1A (RV-1A), rhinovirus type 2 (RV-2) or Coxsackie A21 virus (Cox A21) in culture medium. Some of the compounds were also tested against rhinovirus type 5 (RV-5), rhinovirus type 8 (RV-8) or rhinovirus type 64 (RV-64). Cell controls received no viruses.

[1] = Cytotoxicity in tissue culture testing (HeLa monolayers); assay type: cell-based; settings: human; HeLa cells; observed at 48 and 72 hours post-treatment; read-out: Cytotoxicity: concentration of the compound found to be toxic to the cell
Summary of the method: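 Compound in Eagle's medium plus fetal calf serum was applied to monolayered HeLa cells; cultures were then infected with RV-1A, RV-2 or Coxsackie A21, with RV-5, RV-8 or RV-64 for some compounds. Controls received no compound or no virus.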

[2] = tested on: rhinovirus type 1A (RV-1A); experiment: Tissue culture testing, rhinovirus type 1A in HeLa cells; assay type: cell-based; settings: Enterovirus, 48 and 72 hours, NA = not active at the standard test conditions, read-out: RV-1A: lowest concentration of the compound necessary to cause a 50 percent reduction in cytopathic effect
Summary of the method: (§2)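 Reported figures give, in μg/ml, the minimum compound level required for the effect. HeLa monolayers are exposed to compound in serum-supplemented Eagle's medium before virus is added, alongside uninfected cell controls.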

rhinovirus type 2 (RV-2) = experiment: Tissue culture testing, rhinovirus type 2 in HeLa cells; assay type: cell-based; settings: Enterovirus, 48 and 72 hours, NA = not active at the standard test conditions, read-out: RV-2: lowest concentration of the compound necessary to cause a 50 percent reduction in cytopathic effect
Summary of the method: as §2

[3] = tested on: Coxsackie A21 virus (Cox A21); experiment: Tissue culture testing, Coxsackie A21 virus in HeLa cells; assay type: cell-based; settings: 48 and 72 hours, NA = not active at the standard test conditions, read-out: Cox A21: lowest concentration of the compound necessary to cause a 50 percent reduction in cytopathic effect
Summary of the method: as §2

rhinovirus type 5 (RV-5) = experiment: Tissue culture testing, rhinovirus type 5 in HeLa cells; assay type: cell-based; settings: Enterovirus, 48 and 72 hours, NA = not active at the standard test conditions, read-out: RV-5: lowest concentration of the compound necessary to cause a 50 percent reduction in cytopathic effect
Method: as §1
(§3) ^2 Lowest concentration of the compound (μg/ml) necessary to cause

rhinovirus type 8 (RV-8) = experiment: Tissue culture testing, rhinovirus type 8 in HeLa cells; assay type: cell-based; settings: Enterovirus, 48 and 72 hours, NA = not active at the standard test conditions, read-out: RV-8: lowest concentration of the compound necessary to cause a 50 percent reduction in cytopathic effect
Method: as §1, §3

[4] = tested on: rhinovirus type 64 (RV-64); experiment: Tissue culture testing, rhinovirus type 64 in HeLa cells; assay type: cell-based; settings: Enterovirus, 48 and 72 hours, NA = not active at the standard test conditions, read-out: RV-64: lowest concentration of the compound necessary to cause a 50 percent reduction in cytopathic effect
Method: as §1, §3

Cox A21 = experiment: Single Oral Dose test in mice challenged IP with Cox A21; assay type: in vivo, Swiss male mice; settings: 600 mg/kg P.O. 3 h after IP challenge; >3.84 significant (95% confidence level)
Method: In addition, some of the compounds were tested in animals utilizing the following procedure, hereinafter referred to as the "Single Oral Dose" test. Swiss male mice, 8-12 grams in weight were challenged intraperitoneally (IP) with 0.2 ml of a normally lethal dose, i.e., a virus dose sufficient to cause […].80-100% mortality in infected animals within 10 days of challenge of Cox A21, in phosphate buffered saline containing 1% heat inactivated fetal calf serum. Three hours later mice were treated orally (P.O.) with 0.2 ml of compound suspended in 0.5% hydroxypropyl methylcellulose (Methocel) or with 0.2 ml of 0.5% Methocel containing no compound. […] Mice were observed daily for 7-10 days post-challenge and deaths recorded. A modified Mantel-Haenzel combined chi-square procedure was used to determine significant difference between virus control and treated groups. Chi-square values greater than 3.84 are considered significant (95% confidence level) in this test.

Coxsackie A21 virus = experiment: Continuous Oral Feeding test in mice challenged IP with Coxsackie A21 virus; assay type: in vivo; settings: po, 0.06 % in diet, 240 h
Summary of the method: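 Activity judged by chi-square on 10-day deaths versus untreated controls, with values above 3.84 counted active at 95% confidence. The IP challenge (0.2 ml/mouse, HeLa-grown virus, 80 to 100% lethal in 8 to 12 g mice) came on day 1, after diet containing 0.06% (weight percent) compound began on day 0.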

Hanks Untyped = experiment: Inhibition of cytopathic effect in WI-38 cell culture tubes, Hanks Untyped; assay type: cell-based, rhinovirus; settings: Enterovirus; 25 μg/ml; WI-38 cells; read-out: Inhibition grade, Hanks Untyped
Method: (§4) The test compound was dissolved in an appropriate solvent (generally dimethyl sulfoxide) and incubated at 56° C. for at least 15 minutes and this solution was then used to prepare various test solutions having the desired concentration of test compound in preheated WI maintenance medium (49% Eagles, 49% medium 199, 2% fetal calf serum and antibiotics).
(§5) Triplicate cell culture tubes (WI-38 human embryonic lung cell culture tubes) were fed with 1 ml of medium containing the compound at specified concentrations and inoculated with 3-300 TCID50 (3-300 times the tissue culture infective dose 50, i.e., the dose required to infect 50% of the cell cultures tested). Simultaneous viral titrations were performed. The tissue cultures were supplemented with fresh medium when necessary (around 3-4 days) until viral titrations were completed.
(§6) The cell culture tubes were examined dialy for cytopathic effect. […] Comparisons were made at that time with the percentage of cell sheet destruction in tubes containing virus compound mixtures. Observed differences of 75% or more were graded "+", 74-50% as "±", and less than 50% as "-" inhibition.

Rhinovirus Type 4 = experiment: Inhibition of cytopathic effect in WI-38 cell culture tubes, rhinovirus type 4; assay type: cell-based; settings: Enterovirus; 25 μg/ml; WI-38 cells; read-out: Inhibition grade, Rhinovirus Type 4
Method: as §4, §5, §6

Rhinovirus Type 6 = experiment: Inhibition of cytopathic effect in WI-38 cell culture tubes, rhinovirus type 6; assay type: cell-based; settings: Enterovirus; 25 μg/ml; WI-38 cells; read-out: Inhibition grade, Rhinovirus Type 6
Method: as §4, §5, §6

Rhinovirus Type 8 = experiment: Inhibition of cytopathic effect in WI-38 cell culture tubes, rhinovirus type 8; assay type: cell-based; settings: Enterovirus; 25 μg/ml; WI-38 cells; read-out: Inhibition grade, Rhinovirus Type 8
Method: as §4, §5, §6

Rhinovirus Type 10 = experiment: Inhibition of cytopathic effect in WI-38 cell culture tubes, rhinovirus type 10; assay type: cell-based; settings: Enterovirus; 25 μg/ml; WI-38 cells; read-out: Inhibition grade, Rhinovirus Type 10
Method: as §4, §5, §6

Rhinovirus Type 13 = experiment: Inhibition of cytopathic effect in WI-38 cell culture tubes, rhinovirus type 13; assay type: cell-based; settings: Enterovirus; 25 μg/ml; WI-38 cells; read-out: Inhibition grade, Rhinovirus Type 13
Method: as §4, §5, §6

Rhinovirus Type 17 = experiment: Inhibition of cytopathic effect in WI-38 cell culture tubes, rhinovirus type 17; assay type: cell-based; settings: Enterovirus; 25 μg/ml; WI-38 cells; read-out: Inhibition grade, Rhinovirus Type 17
Method: as §4, §5, §6

Rhinovirus Type 19 = experiment: Inhibition of cytopathic effect in WI-38 cell culture tubes, rhinovirus type 19; assay type: cell-based; settings: Enterovirus; 25 μg/ml; WI-38 cells; read-out: Inhibition grade, Rhinovirus Type 19
Method: as §4, §5, §6

Rhinovirus Type 21 = experiment: Inhibition of cytopathic effect in WI-38 cell culture tubes, rhinovirus type 21; assay type: cell-based; settings: Enterovirus; 25 μg/ml; WI-38 cells; read-out: Inhibition grade, Rhinovirus Type 21
Method: as §4, §5, §6

Rhinovirus Type 29 = experiment: Inhibition of cytopathic effect in WI-38 cell culture tubes, rhinovirus type 29; assay type: cell-based; settings: Enterovirus; 25 μg/ml; WI-38 cells; read-out: Inhibition grade, Rhinovirus Type 29
Method: as §4, §5, §6

Rhinovirus Type 39 = experiment: Inhibition of cytopathic effect in WI-38 cell culture tubes, rhinovirus type 39; assay type: cell-based; settings: Enterovirus; 25 μg/ml; WI-38 cells; read-out: Inhibition grade, Rhinovirus Type 39
Method: as §4, §5, §6

Rhinovirus Type 56 = experiment: Inhibition of cytopathic effect in WI-38 cell culture tubes, rhinovirus type 56; assay type: cell-based; settings: Enterovirus; 25 μg/ml; WI-38 cells; read-out: Inhibition grade, Rhinovirus Type 56
Method: as §4, §5, §6

Rhinovirus Type 58 = experiment: Inhibition of cytopathic effect in WI-38 cell culture tubes, rhinovirus type 58; assay type: cell-based; settings: Enterovirus; 25 μg/ml; WI-38 cells; read-out: Inhibition grade, Rhinovirus Type 58
Method: as §4, §5, §6

Rhinovirus Type 59 = experiment: Inhibition of cytopathic effect in WI-38 cell culture tubes, rhinovirus type 59; assay type: cell-based; settings: Enterovirus; 25 μg/ml; WI-38 cells; read-out: Inhibition grade, Rhinovirus Type 59
Method: as §4, §5, §6

Rhinovirus Type 60 = experiment: Inhibition of cytopathic effect in WI-38 cell culture tubes, rhinovirus type 60; assay type: cell-based; settings: Enterovirus; 25 μg/ml; WI-38 cells; read-out: Inhibition grade, Rhinovirus Type 60
Method: as §4, §5, §6

Rhinovirus Type 64 = experiment: Inhibition of cytopathic effect in WI-38 cell culture tubes, rhinovirus type 64; assay type: cell-based; settings: Enterovirus; 25 μg/ml; WI-38 cells; read-out: Inhibition grade, Rhinovirus Type 64
Method: as §4, §5, §6

Rhinovirus Type 68 = experiment: Inhibition of cytopathic effect in WI-38 cell culture tubes, rhinovirus type 68; assay type: cell-based; settings: Enterovirus; 25 μg/ml; WI-38 cells; read-out: Inhibition grade, Rhinovirus Type 68
Method: as §4, §5, §6

Rhinovirus Type 74 = experiment: Inhibition of cytopathic effect in WI-38 cell culture tubes, rhinovirus type 74; assay type: cell-based; settings: Enterovirus; 25 μg/ml; WI-38 cells; read-out: Inhibition grade, Rhinovirus Type 74
Method: as §4, §5, §6

Rhinovirus Type 75 = experiment: Inhibition of cytopathic effect in WI-38 cell culture tubes, rhinovirus type 75; assay type: cell-based; settings: Enterovirus; 25 μg/ml; WI-38 cells; read-out: Inhibition grade, Rhinovirus Type 75
Method: as §4, §5, §6

Rhinovirus Type 81 = experiment: Inhibition of cytopathic effect in WI-38 cell culture tubes, rhinovirus type 81; assay type: cell-based; settings: Enterovirus; 25 μg/ml; WI-38 cells; read-out: Inhibition grade, Rhinovirus Type 81
Method: as §4, §5, §6

Compound | antiviral activity in tissue culture (RV-1A, RV-2 or Cox A21) | MCC [1] [µg/mL] | EC50 [2] [mg/L] | EC50 (rhinovirus type 2 (RV-2)) [mg/L] | EC50 [3] [mg/L] | EC50 (rhinovirus type 5 (RV-5)) [mg/L] | EC50 (rhinovirus type 8 (RV-8)) [mg/L] | Single Oral Dose X^2 (chi-square, deaths vs virus control) (Cox A21) | Continuous Oral Feeding X^2 (chi-square, deaths vs control) (Coxsackie A21 virus) | also measured
CCS(=O)(=O)c1cccnc1Oc1ccc(Cl)c(Cl)c1 [2-(3,4-dichlorophenoxy)-3-(ethylsulfonyl)pyridine] | only marginally active | – | – | – | – | – | – | – | – | –
CS(=O)(=O)c1cccc(Oc2ccc(Br)cc2)n1 [2-(4-bromophenoxy)-6-(methylsulfonyl)pyridine] | only marginally active | – | – | – | – | – | – | – | – | –
CS(=O)(=O)c1ccc(Oc2ccc(C#N)cc2)nc1 [Example 30, 4-((5-(methylsulfonyl)-2-pyridinyl)oxy)benzonitrile] | – | > 100 | 50 (≈ 182 µM) | 50 (≈ 182 µM) | 6.25 (≈ 22.8 µM) | 50 (≈ 182 µM) | 25 (≈ 91.1 µM) | 30.960 | 24.144 | EC50 [4]: 25 mg/L (≈ 91.1 µM)
CS(=O)(=O)c1ccc(Oc2ccc(Cl)c(Cl)c2)nc1 [Example 40, 2-(3,4-dichlorophenoxy)-5-(methylsulfonyl)pyridine] | – | 50 | ≤ 0.31 | 0.625 (≈ 1.96 µM) | ≤ 6.25 | 25 (≈ 78.6 µM) | ~12.5 (≈ 39.3 µM) | 22.807 | – | inhibition at 25 µg/mL (Hanks Untyped): ≥ 75%; inhibition at 25 µg/mL (Rhinovirus Type 4): < 50%; inhibition at 25 µg/mL (Rhinovirus Type 6): < 50%; inhibition at 25 µg/mL (Rhinovirus Type 8): < 50%; inhibition at 25 µg/mL (Rhinovirus Type 10): ≥ 75%; inhibition at 25 µg/mL (Rhinovirus Type 13): ≥ 75%; inhibition at 25 µg/mL (Rhinovirus Type 17): ≥ 75%; inhibition at 25 µg/mL (Rhinovirus Type 19): ≥ 75%; inhibition at 25 µg/mL (Rhinovirus Type 21): ≥ 75%; inhibition at 25 µg/mL (Rhinovirus Type 29): ≥ 75%; inhibition at 25 µg/mL (Rhinovirus Type 39): ≥ 75%; inhibition at 25 µg/mL (Rhinovirus Type 56): ≥ 75%; inhibition at 25 µg/mL (Rhinovirus Type 58): ≥ 75%; inhibition at 25 µg/mL (Rhinovirus Type 59): 50 to 74%; inhibition at 25 µg/mL (Rhinovirus Type 60): 50 to 74%; inhibition at 25 µg/mL (Rhinovirus Type 64): ≥ 75%; inhibition at 25 µg/mL (Rhinovirus Type 68): ≥ 75%; inhibition at 25 µg/mL (Rhinovirus Type 74): ≥ 75%; inhibition at 25 µg/mL (Rhinovirus Type 75): < 50%; inhibition at 25 µg/mL (Rhinovirus Type 81): ≥ 75%
CC(C)S(=O)(=O)c1ccc(Oc2ccc(C(=O)c3ccccc3)cc2)nc1 [Example 51] | – | 4 | 4 (≈ 10.5 µM) | 2 (≈ 5.24 µM) | – | – | – | 3.085 | 17.705 | antiviral activity in initial tissue culture testing (RV-1A, RV-2 or Cox A21; initial test): did not show activity against the test viruses; antiviral activity on retest (RV-1A, RV-2 or Cox A21; retest (data in Table 3), RV-1A and RV-2): did show activity against RV-1A and RV-2
CCS(=O)(=O)c1cccnc1Oc1ccc(C(=O)c2ccccc2)cc1 [Example 74] | only marginally active | 50 | 50 (≈ 136 µM) | ~50 (≈ 136 µM) | – | – | – | – | – | –
